From patent US10745361B2, “Piperazine derivatives having multimodal activity against pain” (ESTEVE PHARMACEUTICALS, S.A., priority 2013, dated 2020)

Target: human σ1 receptor and human μ-opioid receptor
Assay: Human σ1 receptor radioligand assay and human μ-opioid receptor radioligand assay (μ and σ1 dual binding)
Design: key to μ and σ1 dual binding: +: Both Ki-μ and Ki-σ1>=500 nM; ++: One K, <500 nM while the other K, is >=500 nM; +++: Both Ki-μ and Ki-σ1<500 nM; ++++: Both Ki-μ and Ki-σ1<100 nM
Details: one class for both Ki: σ1 ([3H](+)-pentazocine, transfected HEK-293 membranes) and μ-opioid ([3H]-DAMGO, transfected CHO-K1 membranes)
Description: Human σ1 Receptor Radioligand Assay
To investigate binding properties of σ1 receptor ligands to human σ1 receptor, transfected HEK-293 membranes and [^3H](+)-pentazocine (Perkin Elmer, NET-1056), as the radioligand, were used. The assay was carried out with 7 μg of membrane suspension, 5 nM of [^3H](+)-pentazocine in either absence or presence of either buffer or 10 μM Haloperidol for total and non-specific binding, respectively. Binding buffer contained Tris-HCl 50 mM at pH 8. Plates were incubated at 37° C. for 120 minutes. After the incubation period, the reaction mix was then transferred to MultiScreen HTS, FC plates (Millipore), filtered and plates were washed 3 times with ice-cold 10 mM Tris-HCL (pH7.4). Filters were dried and counted at approximately 40% efficiency in a MicroBeta scintillation counter (Perkin-Elmer) using EcoScint liquid scintillation cocktail
Human μ-Opioid Receptor Radioligand Assay
To investigate binding properties of p-opioid receptor ligands to human p-opioid receptor, transfected CHO-K1 cell membranes and [^3H]-DAMGO (Perkin Elmer, ES-542-C), as the radioligand, were used. The assay was carried out with 20 μg of membrane suspension, 1 nM of [^3H]-DAMGO in either absence or presence of either buffer or 10 μM Naloxone for total and non-specific binding, respectively. Binding buffer contained Tris-HCl 50 mM, MgCl2 5 mM at pH 7.4. Plates were incubated at 27° C. for 60 minutes. After the incubation period, the reaction mix was then transferred to MultiScreen HTS, FC plates (Millipore), filtered and plates were washed 3 times with ice-cold 10 mM Tris-HCL (pH 7.4). Filters were dried and counted at approximately 40% efficiency in a MicroBeta scintillation counter (Perkin-Elmer) using
EcoScint liquid scintillation cocktail.
The following scale as been adopted for representing the binding to the σ1 receptor and the μ-opiod receptor expressed as Ki: • + Both Ki-μ and Ki-σ1>=500 nM • ++ One K, <500 nM while the other K, is >=500 nM • +++ Both Ki-μ and Ki-σ1<500 nM • ++++ Both Ki-μ and Ki-σ1<100 nM

Compound	Ki [nM]	μ and σ1 dual binding
CC(C)S(=O)(=O)Nc1cccc(N(C)C2CCN(Cc3cn(-c4ccccc4)nn3)C2)c1 (centres unmarked) [Example 26, N-(3-(methyl(1-((1-phenyl-1H-1,2,3-triazol-4-yl)methyl)pyrrolidin-3-yl)amino)phenyl)propane-2-sulfonamide]	< 100	–
CC(C)S(=O)(=O)Nc1cccc(N2CCN(Cc3cn(-c4ccc(F)cn4)nn3)CC2)c1 [Example 19, N-(3-(4-((1-(5-fluoropyridin-2-yl)-1H-1,2,3-triazol-4-yl)methyl)piperazin-1-yl)phenyl)propane-2-sulfonamide]	–	++
CS(=O)(=O)Nc1cccc(NC2CCN(Cc3cn(-c4ccccc4)nn3)C2)c1 (centres unmarked) [Example 11, N-(3-(1-((1-phenyl-1H-1,2,3-triazol-4-yl)methyl)pyrrolidin-3-ylamino)phenyl)methanesulfonamide]	< 500	–
CC(C)S(=O)(=O)Nc1cccc(N2CCN(Cc3cn(-c4ccccc4O)nn3)CC2)n1 [Example 46, N-(6-(4-((1-(2-hydroxyphenyl)-1H-1,2,3-triazol-4-yl)methyl)piperazin-1-yl)pyridin-2-yl)propane-2-sulfonamide]	–	++
CC(C)S(=O)(=O)Nc1cccc(N2CCCN(Cc3cn(-c4ccccc4F)nn3)CC2)n1 [Example 60, N-(6-(4-((1-(2-fluorophenyl)-1H-1,2,3-triazol-4-yl)methyl)-1,4-diazepan-1-yl)pyridin-2-yl)propane-2-sulfonamide]	< 500	–
CS(=O)(=O)Nc1cccc(N2CCN(Cc3cnn(Cc4ccccn4)c3)CC2)c1 [Example 35, N-(3-(4-((1-(pyridin-2-ylmethyl)-1H-pyrazol-4-yl)methyl)piperazin-1-yl)phenyl)methanesulfonamide]	–	++
COc1cncc(-n2cc(CN3CCN(c4cccc(NS(=O)(=O)C(C)C)n4)CC3)nn2)c1 [Example 56, N-(6-(4-((1-(5-methoxypyridin-3-yl)-1H-1,2,3-triazol-4-yl)methyl)piperazin-1-yl)pyridin-2-yl)propane-2-sulfonamide]	–	++
O=S(=O)(Nc1cccc(N2CCN(Cc3cn(-c4ccccc4F)nn3)CC2)n1)C1CC1 [Example 44, N-(6-(4-((1-(2-fluorophenyl)-1H-1,2,3-triazol-4-yl)methyl)piperazin-1-yl)pyridin-2-yl)cyclopropanesulfonamide]	< 500	–
O=S(=O)(Nc1cccc(N2CCN(Cc3cn(-c4ccc(C(F)(F)F)cc4)nn3)CC2)n1)C1CC1 [Example 68, N-(6-(4-((1-(4-(trifluoromethyl)phenyl)-1H-1,2,3-triazol-4-yl)methyl)piperazin-1-yl)pyridin-2-yl)cyclopropanesulfonamide]	–	++
O=S(=O)(Nc1cccc(N2CCN(Cc3cn(-c4cc(F)ccc4F)nn3)CC2)n1)C1CC1 [Example 65, N-(6-(4-((1-(2,5-difluorophenyl)-1H-1,2,3-triazol-4-yl)methyl)piperazin-1-yl)pyridin-2-yl)cyclopropanesulfonamide]	–	++
O=S(=O)(Nc1cccc(N2CCN(Cc3cn(-c4ccccn4)cn3)CC2)n1)C1CC1 [Example 73, N-(6-(4-((1-(pyridin-2-yl)-1H-imidazol-4-yl)methyl)piperazin-1-yl)pyridin-2-yl)cyclopropanesulfonamide]	< 500	–
CC(C)S(=O)(=O)Nc1cccc(N2CCN(Cc3cn(-c4ccccn4)nn3)CC2)c1 [Example 17, N-(3-(4-((1-(pyridin-2-yl)-1H-1,2,3-triazol-4-yl)methyl)piperazin-1-yl)phenyl)propane-2-sulfonamide]	< 500	–
CS(=O)(=O)Nc1cccc(NC2CN(Cc3cn(-c4ccccc4)nn3)C2)c1 [Example 12, N-(3-(1-((1-phenyl-1H-1,2,3-triazol-4-yl)methyl)azetidin-3-ylamino)phenyl)methanesulfonamide]	< 500	–
CC(C)S(=O)(=O)Nc1cccc(N2CCN(Cc3cn(-c4ccccc4F)nn3)CC2)c1 [Example 9, N-(3-(4-((1-(2-fluorophenyl)-1H-1,2,3-triazol-4-yl)methyl)piperazin-1-yl)phenyl)propane-2-sulfonamide]	< 100	–
CC(C)S(=O)(=O)Nc1cccc(N2CCN(Cc3cn(-c4ccc(Cl)cc4F)nn3)CC2)n1 [Example 50, N-(6-(4-((1-(4-chloro-2-fluorophenyl)-1H-1,2,3-triazol-4-yl)methyl)piperazin-1-yl)pyridin-2-yl)propane-2-sulfonamide]	–	++
CC(C)S(=O)(=O)Nc1cccc(N2CCN(Cc3cn(-c4ccc(F)cc4)nn3)CC2)c1 [Example 28, N-(3-(4-((1-(4-fluorophenyl)-1H-1,2,3-triazol-4-yl)methyl)piperazin-1-yl)phenyl)propane-2-sulfonamide]	< 500	–
CC(C)S(=O)(=O)Nc1cccc(N2CCN(Cc3cn(-c4cccc(F)n4)nn3)CC2)c1 [Example 29, N-(3-(4-((1-(6-fluoropyridin-2-yl)-1H-1,2,3-triazol-4-yl)methyl)piperazin-1-yl)phenyl)propane-2-sulfonamide]	< 500	–
